# Laboratory results published in ChEMBL document CHEMBL5252530, “Biological importance of structurally diversified chromenes” (Eur J Med Chem, 2016).
# Test system: Mycobacterium tuberculosis variant bovis
# Experiment: Antibacterial activity against Mycobacterium bovis BCG assessed as reduction in cell viability measured after 14 days by microdrop agar proportion test
# Type: functional
# Settings: 336 h, time 14 day
smiles,measurement,value
COC(=O)c1ccc(C(=O)Oc2ccc3c(c2)OC(C)(C)C=C3C)cc1,MIC,2 µg/mL
